Reference: patent US12433510B2, “Methods and systems for improved collection of interstitial fluid” (Georgia Tech Research Corporation, priority 2017, dated 2025)
Where two headings read alike, the source gives them in different places.

How the values were obtained:
[1] = human, in vivo
clinical = settings: human, in vivo
in vivo = settings: female, Wistar, rat, 1 mg/kg; for AUC: mean ± SD, n = 6 rats
[2] = iv, ISF, 1 mg/kg bolus intravenous
[3] = iv, Serum, 1 mg/kg bolus intravenous

Cn1c(=O)c2c(ncn2C)n(C)c1=O [caffeine]
CL [1]: 4.7 L/h | t1/2 [1]: 450 min | Cmax ([1]; 43 mg): 1030 ng/mL | Cmax (clinical; 43 mg, Cmax): 1060 ng/mL | AUC(0-t) (clinical; AUC(0-8 h)): 84 ng·h/mL | clearance (clinical; CL): 68.3 mL/min | half-life (clinical; t1/2): 564 min

CN[C@H](CC(C)C)C(=O)N[C@H]1C(=O)N[C@@H](CC(N)=O)C(=O)N[C@H]2C(=O)N[C@H]3C(=O)N[C@H](C(=O)N[C@H](C(=O)O)c4cc(O)cc(O)c4-c4cc3ccc4O)[C@H](O)c3ccc(c(Cl)c3)Oc3cc2cc(c3O[C@@H]2O[C@H](CO)[C@@H](O)[C@H](O)[C@H]2O[C@H]2C[C@](C)(N)[C@H](O)[C@H](C)O2)Oc2ccc(cc2Cl)[C@H]1O [vancomycin]
Tmax Ratio (ISF:serum) (1 mg/kg bolus intravenous): 2.7 ± 1.6 | slope of linear correlation of paired ISF and serum drug levels (R2=0.40): 0.75±0.06 | Tmax (in vivo; delay in time to peak concentration (Tmax) in ISF compared to serum): ~17 min | Kp (in vivo; iv, AUC Ratio (ISF:serum), 1 mg/kg bolus intravenous): 1.3 ± 0.2 | AUC (in vivo; [2]): 2300 ng·h/mL | AUC (in vivo; [3]): 1770 ng·h/mL | Kp (in vivo; iv, Cmax Ratio (ISF:serum), 1 mg/kg bolus intravenous): 0.9 ± 0.2 | Cmax (in vivo; [2]): 2500 ± 1000 ng/mL | Cmax (in vivo; [3]): 2600 ± 600 ng/mL | Tmax (in vivo; iv, Tmax, ISF, 1 mg/kg bolus intravenous): 26.6 min | Tmax (in vivo; iv, Tmax, Serum, 1 mg/kg bolus intravenous): 10 min

CCN=c1cc2oc3cc(NCC)c(C)cc3c(-c3ccccc3C(=O)OCC)c-2cc1C.Cl [R6G, rhodamine 6G]
R6G concentration in protein-free serum samples (plasma proteins): 0.05 ± 0.03 µM | R6G concentration in serum prior to filtration (plasma proteins): 9.6 ± 4.2 µM | binding to plasma proteins (plasma proteins): strongly binds to plasma proteins
